Glucose disposal data for 1 compound are collected here from patent US20110123654A1, “SYNERGISTIC ENHANCEMENT OF CELLULAR ERGOGENIC NUTRIENT UPTAKE, LIKE CREATINE OR CARNITINE, WITH TARRAGON” (priority 2008, published 2011).

This test concerns blood glucose levels. The test is described as follows: Glucose challenge test in rats. The conditions noted are these: compared to control; p.o. 30 min before i.p. glucose challenge; non-fasted male Wistar rats. The class given is in vivo. The procedure:
A common way of testing for an effect of extracts or new chemical entities on blood glucose levels is the glucose challenge test (Verspohl, E. J.: Recommended testing in diabetes research. Planta Med 68 (7): 581-90, 2002) in which rats are given the extract, control, or a known antidiabetic substance with challenge an intraperitoneal (i.p.) dose of glucose. The extracts or extract PLUS creatine are given orally 30 min. before the glucose challenge. Blood samples are taken sublingual at time points 0, 15, 30, 60, and 120 minutes for the glucose challenge. This sampling scheme ensures to monitor both effects of extracts on the blood glucose levels after glucose challenge closely enough.
Male non-fasted Wistar rats weighing 250-300 g were purchased from Harlan (Indianapolis, Ind., U.S.A). […]
Blood was drawn at the appropriate time points from the sublingual vein after a short halothane anesthesia and stored at 4° C. with addition of heparin. […] The supernatant plasma was taken and analyzed using an autoanalyzer (Merck, Darmstadt). […]
Both percent and AUC data were analyzed by one-way ANOVA and Student-Newman-Keuls Multiple Comparison Test using Graphpad 4.0 Software, San Diego, USA. The AUC (area under the curve) was calculated using the trapezoidal rule without extensions beyond the last time point measured.

For the compound `CN(CC(=O)O)C(=N)N.O` [creatine monohydrate], the glucose disposal result is on record as “no effect”.
